According to patent US12502435B2, “Metastatic brain tumor targeting peptides” (H. Lee Moffitt Cancer Center and Research Institute, Inc., priority 2018, dated 2025):

Key:
[1] = system: Lung Cancer Brain Metastases Cells (MH1002, MH1016, H1915); assay: flow cytometry binding of peptide to lung cancer brain metastases cells; conditions: compared to primary lung cancer cells and non-targeting peptides
Source text: FIGS. 2A to 2C show binding of BRDT (LBM1) peptide applied to Primary Lung Cancer Cells, Non Malignant Brain Cells, Lung Cancer Brain Metastases Cells (MH1002, MH1016, H1915) analyzed through flow cytometry.
FIGS. 4A to 4C show binding of LBM2 peptide applied to Primary Lung Cancer Cells, Non Malignant Brain Cells, Lung Cancer Brain Metastases Cells (MH1002, MH1016, H1915) analyzed through flow cytometry.
FIGS. 6A to 6C show binding AMOT (LBM4) peptide applied to Primary Lung Cancer Cells, Non Malignant Brain Cells, Lung Cancer Brain Metastases Cells (MH1002, MH1016, H1915) analyzed through flow cytometry.
For each peptide, as the concentration of peptide goes up, there was a right shift indicating binding to the brain met cells, with minimal binding to the lung cancer primary cells, showing specificity of binding to the brain mets over the lung cancer.

[2] = system: Primary Lung Cancer Cells; assay: peptide binding to primary lung cancer cells (FIGS. 3, 5, 7A)
[3] = system: Lung Cancer Brain Metastases cells; assay: peptide binding to lung cancer brain metastases cells (FIGS. 3, 5, 7B); conditions: MH1002
[4] = system: non-malignant brain cells; assay: peptide binding to non-malignant brain cells (FIGS. 3, 5, 7A)

Row | Sequence | flow cytometry shift with peptide applied to lung cancer BM cells [1] | binding to primary lung cancer cells [2] | binding to Lung Cancer Brain Metastases cells [3] | binding to non-malignant brain cells [4]
1 | SYPSNALSLHKY [LBM1] | right shift | no binding | positive binding | no binding
2 | TLGLRPVPVATT [LBM2] | right shift | no binding | positive binding | no binding
